Measured values taken from patent US20220169632A1, “METHODS AND MATERIALS FOR INCREASING OR MAINTAINING NICOTINAMIDE MONONUCLEOTIDE ADENYLYL TRANSFERASE-2 (NMNAT2) POLYPEPTIDE LEVELS” (University of Pittsburgh - Of the Commonwealth System of …, priority 2019, published 2022).

These compounds were tested on NMNAT2 (assay: NMNAT2-Hibit nano-luciferase activity in stably transfected U87MG cells, various concentrations, 24 hours). Conditions: U87MG cells stably transfected with NMNAT2-Hibit luc plasmid.
Type: cell-based
Method: Selected compounds were tested in vitro. U87MG cells were stably transfected with NMNAT2-Hibit luc plasmid. Cells were treated with a test compound at various concentrations for 24 hours. Cells were then collected and assayed for nano-luciferase activity.
With `Cc1ccc(C)c(Cn2cc([C@H]3C[C@@H]3C(=O)NCc3cccc(F)c3)c3ccccc32)c1` (racemic) [BC20346] the “E: compound efficacy for NMNAT2 activation (concentration giving >25% increase in NMNAT2 luciferase activity)” value was “+ (“+” >25% increase in NMNAT2 luciferase activity at >25 μM.)”. In the case of `Cc1ccc(C)c(Cn2cc([C@H]3C[C@@H]3C(=O)NCc3ccccc3C)c3ccccc32)c1` (racemic) [BC20347], the “E: compound efficacy for NMNAT2 activation (concentration giving >25% increase in NMNAT2 luciferase activity)” value is reported as “++ (“++” >25% increase in NMNAT2 luciferase activity at >1 μM ≤25 μM.)”. With `Cc1cccc(CNC(=O)[C@H]2C[C@@H]2c2cn(Cc3cc(C)ccc3C)c3ccccc23)c1` (racemic) [BC20348] the “E: compound efficacy for NMNAT2 activation (concentration giving >25% increase in NMNAT2 luciferase activity)” value was “+ (“+” >25% increase in NMNAT2 luciferase activity at >25 μM.)”. For `COc1ccccc1CNC(=O)[C@H]1C[C@@H]1c1cn(Cc2cc(C)ccc2C)c2ccccc12` (racemic) [BC20349], the “E: compound efficacy for NMNAT2 activation (concentration giving >25% increase in NMNAT2 luciferase activity)” value was “+ (“+” >25% increase in NMNAT2 luciferase activity at >25 μM.)”. With `COc1cccc(CNC(=O)[C@H]2C[C@@H]2c2cn(Cc3cc(C)ccc3C)c3ccccc23)c1` (racemic) [BC20350] the “E: compound efficacy for NMNAT2 activation (concentration giving >25% increase in NMNAT2 luciferase activity)” value was “+ (“+” >25% increase in NMNAT2 luciferase activity at >25 μM.)”. In the case of `Cc1ccc(C)c(Cn2cc([C@H]3C[C@@H]3C(=O)NCc3cccnc3)c3ccccc32)c1` (racemic) [BC20351], the “E: compound efficacy for NMNAT2 activation (concentration giving >25% increase in NMNAT2 luciferase activity)” value is reported as “+ (“+” >25% increase in NMNAT2 luciferase activity at >25 μM.)”. With `Cc1ccc(C)c(Cn2cc([C@H]3C[C@@H]3C(=O)NCc3ccncc3)c3ccccc32)c1` (racemic) [BC20352] the “E: compound efficacy for NMNAT2 activation (concentration giving >25% increase in NMNAT2 luciferase activity)” value was “+ (“+” >25% increase in NMNAT2 luciferase activity at >25 μM.)”. `CCCCN(CC)Cc1ccc(CNC(=O)[C@H]2C[C@@H]2c2cn(Cc3cc(C)ccc3C)c3ccccc23)o1` (racemic) [BC20353] was tested, and the “E: compound efficacy for NMNAT2 activation (concentration giving >25% increase in NMNAT2 luciferase activity)” value was “++ (“++” >25% increase in NMNAT2 luciferase activity at >1 μM ≤25 μM.)”. With `Cc1ccc(C)c(Cn2cc([C@H]3C[C@@H]3C(=O)N3CCc4occc4C3)c3ccccc32)c1` (racemic) [BC20359] the “E: compound efficacy for NMNAT2 activation (concentration giving >25% increase in NMNAT2 luciferase activity)” value was “+ (“+” >25% increase in NMNAT2 luciferase activity at >25 μM.)”. `Cc1ccc(C)c(Cn2cc([C@H]3C[C@@H]3C(=O)NCCc3ccccc3)c3ccccc32)c1` (racemic) [BC20360] was tested, and the “E: compound efficacy for NMNAT2 activation (concentration giving >25% increase in NMNAT2 luciferase activity)” value was “++ (“++” >25% increase in NMNAT2 luciferase activity at >1 μM ≤25 μM.)”. `Cc1ccc(C)c(Cn2cc([C@H]3C[C@@H]3C(=O)NC(C)Cc3ccco3)c3ccccc32)c1` (mixture of isomers) [BC20363] was tested, and the “E: compound efficacy for NMNAT2 activation (concentration giving >25% increase in NMNAT2 luciferase activity)” value was “++ (“++” >25% increase in NMNAT2 luciferase activity at >1 μM ≤25 μM.)”. For `Cc1ccc(C)c(Cn2cc([C@H]3C[C@@H]3C(=O)N(CCN(C)C)Cc3ccco3)c3ccccc32)c1` (racemic) [BC20364], the “E: compound efficacy for NMNAT2 activation (concentration giving >25% increase in NMNAT2 luciferase activity)” value was “+++ (“+++” >25% increase in NMNAT2 luciferase activity at ≤1 μM.)”. With `COCCN(CCNC(=O)[C@H]1C[C@@H]1c1cn(Cc2cc(C)ccc2C)c2ccccc12)Cc1ccco1` (racemic) [BC20365] the “E: compound efficacy for NMNAT2 activation (concentration giving >25% increase in NMNAT2 luciferase activity)” value was “+ (“+” >25% increase in NMNAT2 luciferase activity at >25 μM.)”. In the case of `Cc1ccc(C)c(Cn2cc([C@H]3C[C@@H]3C(=O)NCc3ccccn3)c3ccccc32)c1` (racemic) [BC20366], the “E: compound efficacy for NMNAT2 activation (concentration giving >25% increase in NMNAT2 luciferase activity)” value is reported as “+ (“+” >25% increase in NMNAT2 luciferase activity at >25 μM.)”. With `Cc1c(C)n(Cc2ccccc2F)c2ccc(C(=O)NCc3ccco3)cc12` [BC20100] the “E: compound efficacy for NMNAT2 activation (concentration giving >25% increase in NMNAT2 luciferase activity)” value was “++ (“++” >25% increase in NMNAT2 luciferase activity at >1 μM ≤25 μM.)”. With `Cc1c(C)n(Cc2cccc(F)c2)c2ccc(C(=O)NCc3ccco3)cc12` [BC20101] the “E: compound efficacy for NMNAT2 activation (concentration giving >25% increase in NMNAT2 luciferase activity)” value was “+++ (“+++” >25% increase in NMNAT2 luciferase activity at ≤1 μM.)”. `Cc1ccc(C)c(Cn2c3c(c4ccccc42)CC(C(=O)NCc2ccco2)CC3)c1` (centres unmarked) [BC20102] was tested, and the “E: compound efficacy for NMNAT2 activation (concentration giving >25% increase in NMNAT2 luciferase activity)” value was “++ (“++” >25% increase in NMNAT2 luciferase activity at >1 μM ≤25 μM.)”. For `Cc1c(C)n(Cc2ccccc2F)c2ccc(C(=O)NCc3ccccc3F)cc12` [BC20103], the “E: compound efficacy for NMNAT2 activation (concentration giving >25% increase in NMNAT2 luciferase activity)” value was “+++ (“+++” >25% increase in NMNAT2 luciferase activity at ≤1 μM.)”. For `Cc1c(C)n(Cc2ccccc2F)c2ccc(C(=O)NCc3cccc(F)c3)cc12` [BC20104], the “E: compound efficacy for NMNAT2 activation (concentration giving >25% increase in NMNAT2 luciferase activity)” value was “++ (“++” >25% increase in NMNAT2 luciferase activity at >1 μM ≤25 μM.)”. `Cc1ccccc1CNC(=O)c1ccc2c(c1)c(C)c(C)n2Cc1ccccc1F` [BC20105] was tested, and the “E: compound efficacy for NMNAT2 activation (concentration giving >25% increase in NMNAT2 luciferase activity)” value was “++ (“++” >25% increase in NMNAT2 luciferase activity at >1 μM ≤25 μM.)”. In the case of `COc1ccccc1CNC(=O)c1ccc2c(c1)c(C)c(C)n2Cc1ccccc1F` [BC20106], the “E: compound efficacy for NMNAT2 activation (concentration giving >25% increase in NMNAT2 luciferase activity)” value is reported as “++ (“++” >25% increase in NMNAT2 luciferase activity at >1 μM ≤25 μM.)”. With `Cc1c(C)n(Cc2ccccc2F)c2ccc(C(=O)N3CCN(C(=O)c4ccco4)CC3)cc12` [BC20107] the “E: compound efficacy for NMNAT2 activation (concentration giving >25% increase in NMNAT2 luciferase activity)” value was “++ (“++” >25% increase in NMNAT2 luciferase activity at >1 μM ≤25 μM.)”. With `Cc1c(C)n(Cc2ccccc2F)c2ccc(C(=O)NCc3cccnc3)cc12` [BC20108] the “E: compound efficacy for NMNAT2 activation (concentration giving >25% increase in NMNAT2 luciferase activity)” value was “+++ (“+++” >25% increase in NMNAT2 luciferase activity at ≤1 μM.)”. `Cc1ccc(CNC(=O)c2ccc3c(c2)c(C)c(C)n3Cc2cccc(F)c2)o1` [BC20109] was tested, and the “E: compound efficacy for NMNAT2 activation (concentration giving >25% increase in NMNAT2 luciferase activity)” value was “++ (“++” >25% increase in NMNAT2 luciferase activity at >1 μM ≤25 μM.)”. In the case of `Cc1c(C)n(Cc2cccc(F)c2)c2ccc(C(=O)NCC3CCCO3)cc12` (centres unmarked) [BC20110], the “E: compound efficacy for NMNAT2 activation (concentration giving >25% increase in NMNAT2 luciferase activity)” value is reported as “+++ (“+++” >25% increase in NMNAT2 luciferase activity at ≤1 μM.)”. For `Cc1c(C)n(Cc2cccc(F)c2)c2ccc(C(=O)NCc3cccc(F)c3)cc12` [BC20112], the “E: compound efficacy for NMNAT2 activation (concentration giving >25% increase in NMNAT2 luciferase activity)” value was “+++ (“+++” >25% increase in NMNAT2 luciferase activity at ≤1 μM.)”. With `Cc1ccccc1CNC(=O)c1ccc2c(c1)c(C)c(C)n2Cc1cccc(F)c1` [BC20113] the “E: compound efficacy for NMNAT2 activation (concentration giving >25% increase in NMNAT2 luciferase activity)” value was “++ (“++” >25% increase in NMNAT2 luciferase activity at >1 μM ≤25 μM.)”. In the case of `Cc1cccc(CNC(=O)c2ccc3c(c2)c(C)c(C)n3Cc2cccc(F)c2)c1` [BC20114], the “E: compound efficacy for NMNAT2 activation (concentration giving >25% increase in NMNAT2 luciferase activity)” value is reported as “++ (“++” >25% increase in NMNAT2 luciferase activity at >1 μM ≤25 μM.)”. `COc1ccccc1CNC(=O)c1ccc2c(c1)c(C)c(C)n2Cc1cccc(F)c1` [BC20115] was tested, and the “E: compound efficacy for NMNAT2 activation (concentration giving >25% increase in NMNAT2 luciferase activity)” value was “++ (“++” >25% increase in NMNAT2 luciferase activity at >1 μM ≤25 μM.)”. `COc1cccc(CNC(=O)c2ccc3c(c2)c(C)c(C)n3Cc2cccc(F)c2)c1` [BC20116] was tested, and the “E: compound efficacy for NMNAT2 activation (concentration giving >25% increase in NMNAT2 luciferase activity)” value was “++ (“++” >25% increase in NMNAT2 luciferase activity at >1 μM ≤25 μM.)”. In the case of `Cc1c(C)n(Cc2cccc(F)c2)c2ccc(C(=O)N3CCN(C(=O)c4ccco4)CC3)cc12` [BC20117], the “E: compound efficacy for NMNAT2 activation (concentration giving >25% increase in NMNAT2 luciferase activity)” value is reported as “++ (“++” >25% increase in NMNAT2 luciferase activity at >1 μM ≤25 μM.)”. In the case of `Cc1c(C)n(Cc2cccc(F)c2)c2ccc(C(=O)NC(C)Cc3ccco3)cc12` (centres unmarked) [BC20118], the “E: compound efficacy for NMNAT2 activation (concentration giving >25% increase in NMNAT2 luciferase activity)” value is reported as “++ (“++” >25% increase in NMNAT2 luciferase activity at >1 μM ≤25 μM.)”.
